Laboratory results: US20020049249A1, “PPAR receptor activator compounds for treating cutaneous disorders/afflictions” (priority 1999, published 2002)

Legend:
Type in all cases: cell-based
PPAR-α = target: T1, PPAR-α (Homo sapiens, UniProt Q07869); experiment: PPAR-α transactivation test (luciferase reporter, cotransfected HeLa cells); parameters: concentration or dose not given beside the values; details: HeLa cells cotransfected with receptor vector and PPRE-luciferase reporter, 24 hours; relative to Reference 1
T1 construct: expressed in transfected cells; host or cells: HeLa cells
T1 sequence (Q07869 1-468): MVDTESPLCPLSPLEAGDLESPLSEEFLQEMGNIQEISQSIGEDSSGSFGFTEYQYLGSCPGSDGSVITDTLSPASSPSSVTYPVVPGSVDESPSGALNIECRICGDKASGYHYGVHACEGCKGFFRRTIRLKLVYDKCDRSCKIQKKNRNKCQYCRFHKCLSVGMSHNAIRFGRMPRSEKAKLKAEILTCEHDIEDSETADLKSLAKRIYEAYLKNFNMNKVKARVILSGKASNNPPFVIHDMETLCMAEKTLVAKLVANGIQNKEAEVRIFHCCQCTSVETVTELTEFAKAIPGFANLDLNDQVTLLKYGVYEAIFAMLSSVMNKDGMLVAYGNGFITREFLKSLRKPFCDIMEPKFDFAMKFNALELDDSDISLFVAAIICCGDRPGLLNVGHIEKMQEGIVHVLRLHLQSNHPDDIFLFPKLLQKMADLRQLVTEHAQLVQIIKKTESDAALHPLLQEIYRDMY
Method: (§1) This activity is determined employing an enzyme (luciferase) which is a reporter of the activation due to the compound via one of the PPAR receptors.
(§2) The biological tests carried out correspond to those described above. […] Thus, the activating power via PPAR-α, PPAR-γ or PPAR-δ of molecules can be evaluated with a transactivation test in which HeLa cells were cotransfected with an expression vector encoding these receptors and a reporter plasmid comprising a PPRE response element cloned upstream of a portion of a promoter of the SV40 virus and of the luciferase gene. The cotransfected cells were treated for 24 hours with the molecules to be tested and the activity of the luciferase was determined by luminescence.

PPAR-γ = target: T2, PPAR-γ (Homo sapiens, UniProt P37231); experiment: PPAR-γ transactivation test (luciferase reporter, cotransfected HeLa cells); parameters: concentration or dose not given beside the values; details: HeLa cells cotransfected with receptor vector and PPRE-luciferase reporter, 24 hours; relative to Reference 2
T2 construct: expressed in transfected cells; host or cells: HeLa cells
T2 sequence (P37231 1-505): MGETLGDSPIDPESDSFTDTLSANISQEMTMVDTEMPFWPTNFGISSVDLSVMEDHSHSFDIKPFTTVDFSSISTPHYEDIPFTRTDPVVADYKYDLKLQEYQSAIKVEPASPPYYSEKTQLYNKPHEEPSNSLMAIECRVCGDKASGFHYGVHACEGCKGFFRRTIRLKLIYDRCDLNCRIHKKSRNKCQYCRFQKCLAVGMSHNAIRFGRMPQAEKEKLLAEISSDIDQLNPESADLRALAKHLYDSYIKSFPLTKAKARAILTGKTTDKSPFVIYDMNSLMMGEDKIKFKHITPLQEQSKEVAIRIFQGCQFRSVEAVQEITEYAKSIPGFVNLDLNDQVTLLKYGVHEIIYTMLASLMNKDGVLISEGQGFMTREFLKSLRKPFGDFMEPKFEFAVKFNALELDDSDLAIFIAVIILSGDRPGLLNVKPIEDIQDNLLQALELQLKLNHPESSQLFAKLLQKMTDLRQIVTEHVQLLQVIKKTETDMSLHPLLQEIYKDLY
Method: as §1, §2

PPAR-β = target: T3, PPAR-β (Homo sapiens, UniProt Q03181); experiment: PPAR-β transactivation test (luciferase reporter, cotransfected HeLa cells); parameters: % of activation, β: concentration or dose not given beside the values; details: 24 hours; for % of activation, β: HeLa cells cotransfected with receptor vector and PPRE-luciferase reporter, relative to Reference 2; for AC50: HeLa cells cotransfected, concentration giving 50% of the activity of the reference molecule
T3 construct: expressed in transfected cells; host or cells: HeLa cells
T3 sequence (Q03181 1-441): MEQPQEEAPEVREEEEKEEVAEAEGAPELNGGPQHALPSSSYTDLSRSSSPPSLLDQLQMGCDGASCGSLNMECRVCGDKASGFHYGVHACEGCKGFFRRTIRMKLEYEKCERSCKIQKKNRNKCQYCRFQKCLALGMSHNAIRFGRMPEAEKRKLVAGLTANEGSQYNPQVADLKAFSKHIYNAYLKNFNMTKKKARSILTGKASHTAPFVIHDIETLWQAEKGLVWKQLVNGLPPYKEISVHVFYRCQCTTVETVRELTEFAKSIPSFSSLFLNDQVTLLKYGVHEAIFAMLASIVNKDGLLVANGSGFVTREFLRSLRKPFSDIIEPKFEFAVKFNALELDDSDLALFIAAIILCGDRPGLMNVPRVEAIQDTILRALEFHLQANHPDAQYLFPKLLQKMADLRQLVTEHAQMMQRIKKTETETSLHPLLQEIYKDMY
Method: as §1, §2

% of activation, α (PPAR-α) [%]	% of activation, γ (PPAR-γ) [%]	% of activation, β (PPAR-β) [%]	AC50 (PPAR-β) [nM]	Compound
5	0	7		CC1=NC(=Cc2ccc(Oc3ccc4c(c3)C(C)(C)CCC4(C)C)cc2)C(=O)O1 [Comparative Example 1, 2-methyl-4-[4-(5,5,8,8,-tetramethyl-5,6,7,8-tetrahydronaphth-2-yloxy)benzylidine]-4H-oxazol-5-one, reference compound]
7	4	0		CC(=O)NC(=Cc1ccc(Oc2ccc3c(c2)C(C)(C)CCC3(C)C)cc1)C(=O)O [Comparative Example 2, 2-acetylamino-3-[4-(5,5,8,8-tetramethyl-5,6,7,8-tetrahydronaphth-2-yloxy)phenyl]-acrylic acid, reference compound]
18	23	152	700	CC1(C)CCC(C)(C)c2cc(Oc3ccc4cc(C(=O)O)ccc4c3)ccc21 [Compound 1, 6-(5,5,8,8-tetramethyl-5,6,7,8-tetrahydronaphth-2-yloxy)naphthalene-2-carboxylic acid]
12	18	204	900	CC1(C)CCC(C)(C)c2cc(Oc3ccc(C=CC(=O)O)cc3)ccc21 [Compound 2, 3-[4-(5,5,8,8-tetramethyl-5,6,7,8-tetrahydronaphth-2-yloxy)phenyl]acrylic acid]
24	40	172	200	CC1(C)CCC(C)(C)c2cc(Sc3ccc4cc(C(=O)O)ccc4c3)ccc21 [Compound 3, 6-(5,5,8,8-tetramethyl-5,6,7,8-tetrahydronaphth-2-ylsulfanyl)naphthalene-2-carboxylic acid]
12	0	56		CC(=CC(=O)O)c1ccc(Oc2ccc3c(c2)C(C)(C)CCC3(C)C)cc1 [Compound 4, 3-[4-(5,5,8,8-tetramethyl-5,6,7,8-tetrahydronaphth-2-yloxy)phenyl]but-2-enoic acid]
25	69	328	7000	CC1(C)CCC(C)(C)c2cc(Nc3ccc4cc(C(=O)O)ccc4c3)ccc21 [Compound 5, 6-(5,5,8,8-tetramethyl-5,6,7,8-tetrahydronaphth-2-ylamino)naphthalene-2-carboxylic acid]
100				Cc1cccc(Nc2cc(Cl)nc(SCC(=O)O)n2)c1C [Reference 1, [4-chloro-6-(2,3-dimethyl-phenylamino)pyrimidin-2-ylsulfanyl]acetic acid, reference compound]
